According to patent US4906624A, “6-(((Substituted)pyridin-3-yl)alkyl)-and alkenyl)-tetrahydro-4-hydroxypyran-2-one inhibitors of cholesterol biosynthesis” (Warner-Lambert Company, priority 1988, dated 1990):
Where a name gives a salt, the structure may show the parent alone.

Test system: Cholesterol Synthesis
Assay: AICS screen: inhibition of cholesterol synthesis in rats (plasma [14C]cholesterol after sodium [1-14C]-acetate)
Assay type: in vivo
Conditions: single dose, oral gavage, male Sprague-Dawley rats fed 5% cholestyramine, acetate one hour after drug, blood after 50 minutes; for change in vivo at 1 mg/kg / change in vivo at 1.5 mg/kg: Rattus norvegicus, 50 min
Procedure: The ability of compounds of the present invention to inhibit the biosynthesis of cholesterol was also measured by a method (designated AICS screen) which utilizes the procedure described by A. W. Alberts et al, Proc. Natl. Acad. Sci., (1980), 77, pp 3957-3961.
In this method male Sprague-Dawley rats (200 g body weight) previously fed 5% cholestyramine for three days were randomly divided into groups (N=5/group) and given a single dose of vehicle (controls) or compound by an oral gavage at the indicated doses. One hour after drug dosing, all rats were injected intraperitoneally with sodium[1-^14 C]-acetate (18.75 μCi/rat in 0.2 ml saline). After 50 minutes, blood samples were taken, plasma obtained by centrifugation, and plasma [^14 C]cholesterol measured after saponification and extraction.

SMILES	change in vivo at 1 mg/kg (1.0 mg/kg) [%]	other results
Cc1cc(-c2ccc(F)cc2)c(/C=C/[C@@H](O)C[C@@H](O)CC(=O)O)c(C(C)C)n1 (relative stereo) [Example 21, [R*,S*-(E)]-7-[4-(4-fluorophenyl)-6-methyl-2-(1-methylethyl)-3-pyridinyl]-3,5-dihydroxy-6-heptenoic acid, hemicalcium salt]	-67	–
Cc1cc(-c2ccc(F)cc2)c(/C=C/[C@@H]2C[C@@H](O)CC(=O)O2)c(C(C)C)[n+]1[O-] (relative stereo) [Example 42, 4α,6β(E)-6-[2-[4-(4-fluorophenyl)-6-methyl-2-(1-methylethyl)-3-pyridinyl]ethenyl]tetrahydro-4-hydroxy-2H-pyran-2-one, N-oxide]	-69	–
CC(C)c1nc(-c2ccccc2)cc(-c2ccc(F)cc2)c1/C=C/[C@@H]1C[C@@H](O)CC(=O)O1 (relative stereo) [Example 30, [4α,6β(E)]-6-[2-[4-(4-fluorophenyl)-2-(1-methylethyl)-6-phenyl-3-pyridinyl]ethenyl]tetrahydro-4-hydroxy-2H-pyran-2-one]	-64	–
COC(=O)c1c(C(C)C)nc(C(C)C)c(/C=C/[C@@H]2C[C@@H](O)CC(=O)O2)c1-c1ccc(F)cc1 (relative stereo) [Example 13, [2α,4β-(E)]-4-(4-fluorophenyl)-2,6-bis(1-methylethyl)-5-[2-(tetrahydro-4-hydroxy-6-oxo-2H-pyran-2-yl)ethenyl]-3-pyridinecarboxylic acid, methyl ester]	-67	–
Cc1cc(-c2ccc(F)cc2)c(/C=C/[C@@H]2C[C@@H](O)CC(=O)O2)c(C(F)(F)F)n1 (relative stereo) [Example 22, [4α,6β(E)]-6-[2-[4-(4-fluorophenyl)-6-methyl-2-(trifluoromethyl)-3-pyridinyl]ethenyl]tetrahydro-4-hydroxy-2H-pyran-2-one]	-59	–
CCc1cc(-c2ccc(F)cc2)c(/C=C/[C@@H]2C[C@@H](O)CC(=O)O2)c(CC)n1 (relative stereo) [Example 26, [4α,6β(E)]-6-[2-[2,6-diethyl-4(4-fluorophenyl)-3-pyridinyl]ethenyl]tetrahydro-4-hydroxy-2H-pyran-2-one]	-60	–
Cc1cc(C)c(/C=C/[C@@H]2C[C@@H](O)CC(=O)O2)c(-c2ccc(F)cc2)n1 (relative stereo) [Example 28, [4α,6β(E)]-6-[2-[2-(4-fluorophenyl)-4,6-dimethyl-3-pyridinyl]ethenyl]tetrahydro-4-hydroxy-2H-pyran-2-one]	–	change in vivo at 1.5 mg/kg: -64%
CCc1nc(CC)c(C(=O)OC)c(-c2ccc(F)cc2)c1/C=C/[C@@H]1C[C@@H](O)CC(=O)O1 (relative stereo) [Example 34, [2α,4β(E)]-2,6-diethyl-4-(4-fluorophenyl)-5-[2-(tetrahydro-4-hydroxy-6-oxo-2H-pyran-2-yl)ethenyl]-3-pyridinecarboxylic acid, methyl ester]	-57	–
CCc1nc(CC)c(CO)c(-c2ccc(F)cc2)c1/C=C/[C@@H]1C[C@@H](O)CC(=O)O1 (relative stereo) [Example 36]	-68	–
Cc1cc(-c2ccc(F)cc2)c(/C=C/[C@@H]2C[C@@H](O)CC(=O)O2)c(C(C)C)n1 (relative stereo) [Example 19, [4α,6β(E)]-6-[2-[4-(4-fluorophenyl)-6-methyl-2-(1-methylethyl)-3-pyridinyl]ethenyl]tetrahydro-4-hydroxy-2H-pyran-2-one]	-72	–
CCCNC(=O)c1c(C(C)C)nc(C(C)C)c(/C=C/C2CC(O)CC(=O)O2)c1-c1ccc(F)cc1 (stereo not drawn) [Example 32, [2α,4α(E)]-4-(4-fluorophenyl)-2,6-bis(1-methylethyl)-n-propyl-5-[2-(tetrahydro-4-hydroxy-6-oxo-2H-pyran-2-yl)ethenyl]-3-pyridinecarboxamide]	–	% Inhibition of Cholesterol Synthesis (1.0 mg/kg): -25%
COC(=O)c1c(C(C)C)nc(C)c(/C=C/[C@@H]2C[C@@H](O)CC(=O)O2)c1-c1ccc(F)cc1 (relative stereo) [Example 9]	–	change in vivo at 1.5 mg/kg: -55%
COc1c(C)nc(C(C)C)c(/C=C/[C@@H]2C[C@@H](O)CC(=O)O2)c1-c1ccc(F)cc1 (relative stereo) [Example 38, [4α,6β(E)]-6-[2-[4-(4-fluorophenyl)-5-methoxy-6-methyl-2-(1-methylethyl)-3-pyridinyl]ethenyl]tetrahydro-4-hydroxy-2H-pyran-2-one]	-67	–
